Test results as given in the NIST ThermoML archive (doi:10.1016/j.tca.2018.08.017).
Several values for one entry are separate records, joined by “and”; a condition that tells them apart may be missing. Equal values may be shown once.

Settings: 101.33 kPa, Liquid

CCCCCCCCCCCCCCCCCC [octadecane]
viscosity
Settings	Concentric cylinders viscometry	Cone and plate viscometry
309.68 K	3.276 mPa·s	–
309.75 K	–	3.24 mPa·s
309.85 K	–	3.3 mPa·s
309.95 K	–	3.22 mPa·s and 3.2 mPa·s
310.04 K	3.245 mPa·s	–
310.15 K	–	3.21 mPa·s and 3.28 mPa·s and 3.42 mPa·s
310.25 K	–	3.18 mPa·s
310.32 K	3.229 mPa·s	–
310.35 K	–	3.22 mPa·s and 3.26 mPa·s
310.41 K	3.218 mPa·s	–
310.55 K	–	3.18 mPa·s
310.65 K	–	3.25 mPa·s and 3.14 mPa·s and 3.38 mPa·s
310.75 K	–	3.17 mPa·s
310.77 K	3.19 mPa·s	–
310.85 K	–	3.24 mPa·s
310.95 K	–	3.15 mPa·s and 3.12 mPa·s
311.04 K	3.171 mPa·s	–
311.15 K	–	3.14 mPa·s and 3.22 mPa·s and 3.35 mPa·s
311.16 K	3.159 mPa·s	–
311.35 K	–	3.14 mPa·s and 3.2 mPa·s and 3.1 mPa·s
311.54 K	3.13 mPa·s	–
311.55 K	–	3.14 mPa·s
311.65 K	–	3.19 mPa·s and 3.32 mPa·s
311.75 K	–	3.12 mPa·s and 3.07 mPa·s
311.78 K	3.118 mPa·s	–
311.85 K	–	3.17 mPa·s
311.95 K	–	3.11 mPa·s
311.96 K	3.099 mPa·s	–
312.05 K	–	3.05 mPa·s
312.15 K	–	3.1 mPa·s and 3.15 mPa·s and 3.28 mPa·s
312.33 K	3.071 mPa·s	–
312.35 K	–	3.1 mPa·s and 3.14 mPa·s
312.45 K	3.065 mPa·s	3.04 mPa·s
312.55 K	–	3.07 mPa·s
312.65 K	–	3.12 mPa·s and 3.26 mPa·s
312.69 K	3.043 mPa·s	–
312.75 K	–	3.07 mPa·s and 3.01 mPa·s
312.85 K	–	3.1 mPa·s
312.95 K	–	3.07 mPa·s
313.15 K	–	3.04 mPa·s [middle of 6 runs]
313.18 K	3.011 mPa·s and 3.01 mPa·s	–
313.24 K	3.009 mPa·s	–
313.25 K	3.009 mPa·s	–
313.26 K	3.008 mPa·s and 3.011 mPa·s	–
313.34 K	3.01 mPa·s	–
313.35 K	–	3.01 mPa·s and 3.07 mPa·s
313.45 K	–	2.98 mPa·s
313.55 K	2.985 mPa·s	3.01 mPa·s
313.65 K	–	3.05 mPa·s and 3.21 mPa·s
313.75 K	–	3.01 mPa·s
313.85 K	–	3.04 mPa·s and 2.96 mPa·s
313.93 K	2.956 mPa·s	–
313.95 K	–	3 mPa·s
314 K	2.951 mPa·s	–
314.15 K	–	2.99 mPa·s and 3.02 mPa·s and 3.18 mPa·s
314.25 K	–	2.93 mPa·s
314.3 K	2.931 mPa·s	–
314.35 K	–	2.96 mPa·s and 3.01 mPa·s
314.55 K	–	2.97 mPa·s and 2.92 mPa·s
314.65 K	2.907 mPa·s	3 mPa·s and 3.16 mPa·s
314.67 K	2.905 mPa·s	–
314.75 K	–	2.97 mPa·s
314.85 K	–	2.98 mPa·s
314.95 K	–	2.94 mPa·s and 2.9 mPa·s
315.01 K	2.882 mPa·s	–
315.15 K	–	2.96 mPa·s and 2.97 mPa·s and 3.13 mPa·s
315.35 K	–	2.91 mPa·s and 2.95 mPa·s and 2.88 mPa·s
315.41 K	2.854 mPa·s	–
315.43 K	2.857 mPa·s	–
315.55 K	–	2.91 mPa·s
315.65 K	–	2.94 mPa·s and 2.87 mPa·s and 3.1 mPa·s
315.75 K	–	2.9 mPa·s
315.77 K	2.833 mPa·s	–
315.85 K	–	2.92 mPa·s
315.95 K	–	2.89 mPa·s
316.05 K	–	2.84 mPa·s
316.12 K	2.81 mPa·s	–
316.13 K	2.812 mPa·s	–
316.15 K	–	2.88 mPa·s and 2.9 mPa·s and 3.08 mPa·s
316.35 K	–	2.88 mPa·s and 2.89 mPa·s and 2.83 mPa·s
316.5 K	2.785 mPa·s	–
316.55 K	–	2.88 mPa·s
316.65 K	–	2.87 mPa·s and 2.81 mPa·s and 3.06 mPa·s
316.75 K	–	2.88 mPa·s
316.81 K	2.771 mPa·s	–
316.83 K	2.763 mPa·s	–
316.85 K	–	2.86 mPa·s
316.95 K	–	2.88 mPa·s
317.15 K	–	2.86 mPa·s [middle of 4 runs]
317.2 K	2.74 mPa·s	–
317.35 K	–	2.83 mPa·s and 2.84 mPa·s
317.45 K	–	2.79 mPa·s
317.46 K	2.732 mPa·s	–
317.55 K	–	2.82 mPa·s
317.61 K	2.715 mPa·s	–
317.65 K	–	2.84 mPa·s and 3.02 mPa·s
317.75 K	–	2.84 mPa·s and 2.83 mPa·s
317.95 K	–	2.82 mPa·s and 2.83 mPa·s
317.96 K	2.694 mPa·s	–
318.08 K	2.693 mPa·s	–
318.15 K	–	2.83 mPa·s [middle of 5 runs]
318.26 K	2.679 mPa·s	–
318.43 K	2.672 mPa·s	–
318.45 K	2.665 mPa·s	–
318.49 K	2.653 mPa·s	–
318.5 K	2.654 mPa·s	–
318.53 K	2.655 mPa·s	–
318.57 K	2.661 mPa·s	–
318.58 K	2.662 mPa·s	–
318.59 K	2.655 mPa·s	–
318.6 K	2.659 mPa·s	–
318.61 K	2.657 mPa·s	–
318.64 K	2.654 mPa·s	–
318.65 K	2.66 mPa·s	–
318.69 K	2.655 mPa·s	–
